Data reported in publication PMC6201908, “Affinity, potency, efficacy, and selectivity of neurokinin A analogs at human recombinant NK2 and NK1 receptors” (PLoS ONE, 2018).
Non-standard residues stand in square brackets, D forms with d. Residues, ends and D or L forms follow the SMILES beside them. Nle = CCCC[C@H](N)C(=O)O; βAla = NCCC(=O)O

Key:
[1] = target: human recombinant NK1 receptors (Homo sapiens, UniProt P25103); test: cell-based
Method: (§1) Human recombinant NK2 and NK1 receptors were generated using stably transfected CHO cells (CHO-hNK2 and CHO-hNK1, respectively). Human NK2 or NK1 receptor expressing vectors from Genecopeia (Rockville, USA) were transfected in CHO cells using the standard FuGENE protocol and cells were selected using 450 μg/mL geneticin (G418). Clones expressing the receptors were selected by functional coupling to calcium using FLIPR and a single clone for each receptor subtype was selected for expansion and stable cell line generation. Cells were cultured in a humidified incubator with 5% CO2 in F12K medium containing 10% heat inactivated FBS and 450 μg/mL geneticin and passaged on reaching 80–90% confluence.
(§2) The agonist efficacy of the test compounds at recombinant human NK1 or NK2 receptors expressed in CHO cells was assessed by measuring the intracellular calcium response using the calcium-sensitive dye Fluo-4 AM (Eugene, OR, USA) and a Fluorometric Imaging Plate Reader (FLIPR, Molecular Devices, CA, USA). CHO-hNK1 and CHO-hNK2 cells were seeded into black walled clear-bottom 384-well plates at a density of 10,000 and 15,000 cells per well in 50 μL culture media, respectively, and grown overnight at 37°C in a humidified CO2-incubator. Cells were washed in washing buffer using an EMBLA 384 plate washer, leaving 20 μL of buffer per well after the final aspiration. Cells were then incubated at 37°C with the cytoplasmic Ca^2+ indicator Fluo-4 AM (final concentration 1 μM) in assay buffer (20 mM HEPES, 145 mM NaCl, 5 mM KCl, 5.5 mM glucose, 1 mM MgCl2 and 2 mM CaCl2, pH 7.4, 0.05% Pluronic F-127 and 0.1% BSA) containing 2.5 mM probenecid for 45–60 min (cell loading). Cells were then washed 3 times in washing buffer (20 mM HEPES, 145 mM NaCl, 5 mM KCl, 5.5 mM glucose, 1 mM MgCl2 and 2 mM CaCl2, pH 7.4 and 2.5 mM probenecid) using an EMBLA 384 plate washer, leaving 30 μL of buffer in each well after the last wash. Loaded cell plates were transferred to the FLIPR and calcium responses were monitored as described below. […] Concentration response curves of test compounds were generated in duplicate on at least two different occasions from the same stock solutions. Test solutions were prepared from 10 mM stock solutions in DMSO and 1 μL of each solution was stamped into V-bottom assay plates containing 49 μL assay buffer. The final concentration of DMSO was 0.5% in each well.

[2] = target: T1, human recombinant NK2 receptors (Homo sapiens, UniProt P21452); test: cell-based
T1 sequence (P21452 1-398): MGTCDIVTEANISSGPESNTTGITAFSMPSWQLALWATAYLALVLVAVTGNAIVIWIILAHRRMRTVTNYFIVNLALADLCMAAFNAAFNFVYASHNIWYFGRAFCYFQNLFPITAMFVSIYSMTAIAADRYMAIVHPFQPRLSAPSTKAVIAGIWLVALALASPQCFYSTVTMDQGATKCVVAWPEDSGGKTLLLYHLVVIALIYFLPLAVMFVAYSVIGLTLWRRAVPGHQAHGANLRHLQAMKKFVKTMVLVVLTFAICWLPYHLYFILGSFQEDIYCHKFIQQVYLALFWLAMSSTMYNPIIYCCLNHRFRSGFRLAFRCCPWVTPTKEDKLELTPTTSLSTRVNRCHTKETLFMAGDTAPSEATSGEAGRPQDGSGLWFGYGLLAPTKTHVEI
Method: as §1, §2

[3] = target: T1, human recombinant NK2 receptors; test: Displacement of [^125I]-NKA binding to CHO-hNK2 membranes; details: [^125I]-NKA binding pKi
[4] = Intracellular Ca^2+ pEC50, CHO-hNK1 cells, mean ± SD
[5] = NK1 EC50 intracellular calcium response, CHO-hNK1 cells
[6] = Intracellular Ca^2+ pEC50, CHO-hNK2 cells, mean ± SD
[7] = NK2 EC50 intracellular calcium response, CHO-hNK2 cells

human recombinant NK1 receptors, sequence (P25103 whole entry): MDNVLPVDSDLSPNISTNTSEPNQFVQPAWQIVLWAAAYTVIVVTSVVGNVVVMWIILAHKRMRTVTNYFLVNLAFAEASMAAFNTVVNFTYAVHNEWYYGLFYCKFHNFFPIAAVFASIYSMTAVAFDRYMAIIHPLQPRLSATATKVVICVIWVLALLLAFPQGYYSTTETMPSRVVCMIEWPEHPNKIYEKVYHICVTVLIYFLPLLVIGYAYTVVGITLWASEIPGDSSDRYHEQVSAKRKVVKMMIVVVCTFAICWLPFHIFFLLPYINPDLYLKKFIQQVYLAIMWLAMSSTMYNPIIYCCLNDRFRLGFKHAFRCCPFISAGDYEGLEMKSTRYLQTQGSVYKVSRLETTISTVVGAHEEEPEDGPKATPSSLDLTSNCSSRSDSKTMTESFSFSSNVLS

Compound	EC50 [1, 4] [nM]	EC50 [1, 5] [nM]	EC50 [2, 6] [nM]	EC50 [2, 7] [nM]	Intracellular Ca^2+ % Max [1] [%]	Intracellular Ca^2+ % Max [2] [%]	Ki [3] [nM]
CCCC[C@H](NC(=O)[C@H](CC(C)C)NC(=O)CNC(=O)[C@@H](NC(=O)[C@H](Cc1ccccc1)NC(=O)[C@H](CCCNC(=N)N)NC(=O)[C@@H](N)CC(=O)O)C(C)C)C(N)=O [[Arg^5,Nle^10]-NKA(4–10), Asp-Arg-Phe-Val-Gly-Leu-Nle-NH2] (H-DRFVGL[Nle]-NH2)	1.7	1.71	0.2	0.2			
CCCC[C@H](NC(=O)[C@H](CC(C)C)NC(=O)CCNC(=O)[C@@H](NC(=O)[C@H](Cc1ccccc1)NC(=O)[C@H](CCCCN)NC(=O)[C@@H](N)CC(=O)O)C(C)C)C(N)=O [[Lys^5,β-Ala^8,Nle^10]-NKA(4–10), Asp-Lys-Phe-Val-[β-Ala]-Leu-Nle-NH2] (H-DKFV[βAla]L[Nle]-NH2)	77.6	78.2	3.02	3	107.0 ± 14.0	83.1 ± 25.5	
CSCC[C@H](NC(=O)[C@H](CC(C)C)NC(=O)CNC(=O)[C@@H](NC(=O)[C@H](Cc1ccccc1)NC(=O)[C@H](CCCCN)NC(=O)[C@@H](N)CC(=O)O)C(C)C)C(N)=O [[Lys^5]-NKA(4–10), Asp-Lys-Phe-Val-Gly-Leu-Met-NH2]	0.417	0.41	0.0891	0.09			
CCCC[C@H](NC(=O)[C@H](CC(C)C)NC(=O)CCNC(=O)[C@@H](NC(=O)[C@H](Cc1ccccc1)NC(=O)[C@H](CCCNC(=N)N)NC(=O)[C@@H](N)CC(=O)O)C(C)C)C(N)=O [[Arg^5,β-Ala^8,Nle^10]-NKA(4–10), Asp-Arg-Phe-Val-[β-Ala]-Leu-Nle-NH2] (H-DRFV[βAla]L[Nle]-NH2)	29.5	29.5	1.15	1.16	104.9 ± 13.2	81.4 ± 1.2	
CSCC[C@H](NC(=O)[C@H](CC(C)C)NC(=O)CCNC(=O)[C@@H](NC(=O)[C@H](Cc1ccccc1)NC(=O)[C@H](CCCNC(=N)N)NC(=O)[C@@H](N)CC(=O)O)C(C)C)C(N)=O [[Arg^5,β-Ala^8]-NKA(4–10), Asp-Arg-Phe-Val-[β-Ala]-Leu-Met-NH2] (H-DRFV[βAla]LM-NH2)	1.82	1.83	0.151	0.15	101.5 ± 18.4	106.9 ± 8.9	
CCCC[C@H](NC(=O)[C@H](CC(C)C)NC(=O)CNC(=O)[C@@H](NC(=O)[C@H](Cc1ccccc1)NC(=O)[C@H](CCCCN)NC(=O)[C@@H](N)CC(=O)O)C(C)C)C(N)=O [[Lys^5,Nle^10]-NKA(4–10), Asp-Lys-Phe-Val-Gly-Leu-Nle-NH2]	2.34	2.36	0.38	0.38			
CSCC[C@H](NC(=O)[C@H](CC(C)C)NC(=O)CNC(=O)[C@@H](NC(=O)[C@H](Cc1ccccc1)NC(=O)[C@H](CO)NC(=O)[C@@H](N)CC(=O)O)C(C)C)C(N)=O [NKA(4–10), Asp-Ser-Phe-Val-Gly-Leu-Met-NH2]			1.02	1.02	117.4 ± 12.8		2.34
CSCC[C@H](NC(=O)[C@H](CC(C)C)NC(=O)CCNC(=O)[C@@H](NC(=O)[C@H](Cc1ccccc1)NC(=O)[C@H](CCCCN)NC(=O)[C@@H](N)CC(=O)O)C(C)C)C(N)=O [[Lys^5,β-Ala^8]-NKA(4–10), Asp-Lys-Phe-Val-[β-Ala]-Leu-Met-NH2] (H-DKFV[βAla]LM-NH2)	6.31	6.31	0.174	0.18	105.8 ± 3.4	92.0 ± 3.8	
CSCC[C@H](NC(=O)[C@H](CC(C)C)NC(=O)CNC(=O)[C@@H](NC(=O)[C@H](Cc1ccccc1)NC(=O)[C@H](CCCNC(=N)N)NC(=O)[C@@H](N)CC(=O)O)C(C)C)C(N)=O [[Arg^5]-NKA(4–10), Asp-Arg-Phe-Val-Gly-Leu-Met-NH2] (H-DRFVGLM-NH2)	0.155	0.16	0.191	0.19			
